Measurements: US7279314B2, “Chemical substance having morphogenetic and growth-accelerating activities” (Marine Biotechnology Institute Co., Ltd., priority 2002, dated 2007)

Tests used:
Monostroma oxyspermum = assay: Minimum effective concentration (MEC) for thallus formation in Monostroma oxyspermum culture; format: cell-based
Method: One ml of modified ASP7 medium was added in the wells of the first row of 48-well microtitre plates (Iwaki, hereafter abbreviated as 48-MTP) and 0.9 ml of modified ASP7 medium was added in the wells of the second and subsequent rows. Eleven μl of the active substance fraction of the target was added individually and mixed well by pipetting in the wells on the first row, followed by adding 100 μl of this mixed solution to the wells on the next row. By repeating this procedures subsequently for 8 to 18 times for each fraction, a ten-fold serial dilution can be prepared in 8 to 18 steps. 100 μl that remained in solution in the wells on the last row was discarded. Here, 100 μl of Monostroma oxyspermum culture medium was diluted subsequently so that the final cell concentration of 10 to 20 cells per 1 ml, was delivered to all wells of 48-MTP to bring the total amount of solution to 1 ml. […] The MEC is used as an index for isolation.
Similar to the case of Example 1, isolated and purified novel chemical substance 1 was serially diluted in 16 steps starting with the final concentration of 1 μg/ml. At this time, the Monostroma oxyspermum cell number was adjusted to be 20 cells per 1 ml of the medium. Fresh pipet tips were used for each step dilution. Three sets of these series were prepared and were cultivated for 3 days under the same condition as Example 1. […] Based on this, the MEC of the novel chemical substance 1 will be as follows.
Similar to Example 5, the MEC of the novel chemical substance 1 and its derivatives are measured and the results are shown below.

[1] = Solubility (physicochemical properties); conditions: for Solubility in hydrated solvent: aqueous methanol or aqueous acetonitrile, percentage range given per compound; for Solubility in less-polar organic solvents: such as hexane or chloroform (Me1H1W4: chloroform and toluene)
Ulva pertusa = assay: Culturing experiment of Ulva pertusa; format: cell-based; conditions: 1 ng/ml in ASP7 medium, vs control group without addition (FIG. 15)
Method: (§1) Spores obtained from the Ulva pertusa and Enteromorpha intestinalis collected from Miho Shimizu-city, Shizuoka were washed using their phototaxis activity in the ASP7 medium supplemented with the antibiotics, and then were transferred to rectangular petri dishes filled with sterilized covered glasses and aseptized for 5 days. When the free-living cells had attached to the cover glasses and had start growing, each cover glass was placed in each hole of 6-MTP, followed by adding 10 ml of the ASP7 medium not supplemented with antibiotics. For a test group, the novel chemical substance 1 was added to result in 1 ng/ml and for the control group, nothing was added. They were incubtaed for 7 days under the same conditions as in Example 1. […], the cover glasses of the test group and control section were transferred to the culture test tube containing the medium prepared under the same condition to further incubate another 7 days. […] In addition, the ASP7 medium supplemented with antibiotics is an ASP medium, having the following composition and containing 2% antibiotics.

[2] = Stability of the substances; format: physicochemical
[3] = test system: Enteromorpha intestinalis; assay: Culturing experiment of Enteromorpha intestinalis; format: cell-based; conditions: 1 ng/ml in ASP7 medium, vs control group without addition (FIG. 16)
Method: as §1

[4] = thallus formation of Monostroma oxyspermum, measured similar to Example 5

Solubility in hydrated solvent [1]	Solubility in less-polar organic solvents [1]	Solubility in water [1]	Stability ([2]; general statement)	Stability ([2]; substance induced under alkali condition)	Solubility in non-polar solvent ([1]; such as hexane)	Solubility in DMSO ([1]; DMSO)	Structure (SMILES)	MEC (Monostroma oxyspermum; [4])	Development and thallus formation (Ulva pertusa)	MEC (Monostroma oxyspermum; cultivated for 3 days, 20 cells per 1 ml, thallus formation at 12-step ten-fold dilution from 1 μg/ml) [ag/ml]	MEC after 10 days cultivation (Monostroma oxyspermum; cultivated for 10 days, six-step dilution from 1 μg/ml) [pg/mL]	Thallus state (Monostroma oxyspermum; seven-step dilution, final concentration 1×10^−7 μg/ml, cultivated for 10 days (FIG. 13))	Thallus state (Monostroma oxyspermum; six-step dilution, final concentration 1×10^−6 μg/ml, cultivated for 10 days (FIG. 14))	Development and thallus formation [3]
soluble	soluble	hardly soluble					CC1(C)CCC[C@]2(C)C3CC(c4ccc(CO)nc4CO)=C(CO)O[C@]3(C)CC[C@@H]12 (stereo partly shown) [Me1H1]	No activity						
			quite stable	relatively stable			CC1(C)CCC[C@]2(C)C3CC(c4ccc(C(=O)O)nc4C(=O)O)=C(C(=O)O)O[C@]3(C)CC[C@@H]12 (stereo partly shown) [Novel Chemical Substance 1]	10^−12 μg/ml	normal development and thallus formation were observed	1	1	the disrupted thallus is observed	The thallus was maintained without being collapsed	normal development and thallus formation were observed
soluble	soluble	Poorly soluble			hardly soluble		CC1(C)CCC[C@]2(C)C3C[C@H]4c5ccc(CO)nc5CO[C@@]4(CO)O[C@]3(C)CC[C@@H]12 (stereo partly shown) [Me1H1W4]							
soluble	hardly soluble	hardly soluble				hardly soluble	COC(=O)C1=C(c2ccc(C(=O)OC)nc2C(=O)OC)CC2[C@@](C)(CC[C@H]3C(C)(C)CCC[C@]23C)O1 (stereo partly shown) [Me1]	10^−4 μg/ml						
